The values that follow come from article PMC5004293, “Characterization of FRM-36143 as a new γ-secretase modulator for the potential treatment of familial Alzheimer’s disease” (Alzheimer's Research & Therapy, 2016).

Broadly, the EC50 is the concentration giving half of the maximal effect. The EC90 is the point of the concentration-response curve where the effect stands at 90%. Read a low EC90 as an effect from little substance.

Experiment [1] has as its target T1, γ-secretase (Homo sapiens, UniProt P49768).
T1 construct: expressed in transfected cells; host or cells: HEK cells stably expressing APPsw and WT PS1
As to the kind of experiment: Aβ in media and intracellular small peptides of HEK cells expressing APPsw and WT presenilin. As to conditions: HEK APPsw, 1 μM. In kind it is cell-based. The protocol: (§1) Aβ peptide levels were quantified by sandwich ELISA using anti-Aβ38, anti-Aβ40, anti-Aβ42, (BioLegend, Dedham, MA, USA) or anti-Aβ37 for the capture and 4G8-horseradish peroxidase (HRP; BioLegend) for detection. When measuring Aβ37 and Aβ38, 4G8-HRP was added to the sample for overnight incubation, whereas it was added after the overnight incubation for 1 h for Aβ40 and Aβ42 measurements.
(§2) For cell-based assays, freshly collected samples of cultured cell supernatant were added to the plates and incubated at 4 °C for about 24 h. Detection was performed using SureBlue 3,3’,5,5’-tetramethylbenzidine (TMB) peroxidase substrate (KPL, Inc., Gaithersburg, MD, USA) and the plates read on a SpectraMax M5e microplate reader (Molecular Devices, Inc., Sunnyvale, CA, USA). GSM-treated samples were normalized to samples treated with DMSO alone (100 %) and 5 μM GSI, DAPT (0 %; Sigma-Aldrich). EC50 values were calculated from values reported as percentage of DMSO using nonlinear regression, based on a sigmoidal dose–response (variable slope) model.
The extractions were performed according to the methods described by Okochi et al.. Briefly, human embryonic kidney (HEK) cells stably expressing APPsw and PS1 derivatives were cultured to confluence in 10-cm dishes and the media replaced on the day of the experiment. […] Conditioned media were collected and cells were washed with ice-cold PBS and then immediately boiled for 2 min. A monitoring peptide (IVTL) and protease inhibitors were then added to the boiled samples, which were sonicated for 5 s three times and centrifuged at 100,000 × g for 1 h. The resultant supernatants were precipitated with TCA on ice for 15 min, centrifuged at 100,000 × g for 1 h, and filtered before being subjected to LC-MS/MS analysis to measure the tri-, tetra-, and pentapeptides as described elsewhere.

In experiment [2] the test system is γ-secretase with FAD PS1 mutations (H163R, M233L, R278I). The experiment in a line: HEK cells overexpressing APPsw with FAD PS1 mutations. Type of experiment: cell-based, human. The method, then:
as §1, §2
The extractions were performed according to the methods described by Okochi et al.. Briefly, human embryonic kidney (HEK) cells stably expressing APPsw and PS1 derivatives were cultured to confluence in 10-cm dishes and the media replaced on the day of the experiment. Cells were treated with FRM-36143 in the presence of proteasome inhibitors (1 […], 100 nM MG262, and […]) for 1 h. Conditioned media were collected and cells were washed with ice-cold PBS and then immediately boiled for 2 min. A monitoring peptide (IVTL) and protease inhibitors were then added to the boiled samples, which were sonicated for 5 s three times and centrifuged at 100,000 × g for 1 h. The resultant supernatants were precipitated with TCA on ice for 15 min, centrifuged at 100,000 × g for 1 h, and filtered before being subjected to LC-MS/MS analysis to measure the tri-, tetra-, and pentapeptides as described elsewhere.

The subject of experiment [3] is γ-secretase. The experiment in a line: Acute oral treatment of rats, brain and CSF Aβ peptides. Type of experiment: in vivo, rat. The protocol:
For in vivo assessment of compound efficacy, brain tissue and cerebrospinal fluid (CSF) were collected, snap frozen in liquid nitrogen, and stored at −80 °C. Brain hemispheres were homogenized in 0.6 % diethylamine (DEA) in 50 mM NaCl containing protease inhibitor cocktail (cOmplete mini, EDTA-free, Roche) using sonication (Branson) at 23 % amplitude for 30 s. Homogenates were spun at 227,000 × g for 25 min at 4 °C. Supernatants were diluted fivefold in PBS-T (0.05 % Tween-20) containing 0.67 % BSA and added to the ELISA plate. For CSF, samples were diluted threefold in the PBS-T/BSA buffer. Detection was performed using the SuperSignal™ ELISA Femto substrate (Thermo Fisher), and luminescence was read on an EnVision plate reader (Perkin Elmer).
Mice and rats were maintained on 12/12 h light/dark cycle with food available ad libitum. Drug treatment was prepared in a vehicle of 1 % carboxymethylcellulose (CMC):Tween80 (99.5:0.5). Twelve-week-old wild-type male mice (129S6, Taconic Biosciences, Hudson, NY, USA) or rats (Wistar, Charles River Laboratories) were administered compound p.o. without prior fasting and euthanized by CO2 asphyxiation at specified times post-dosing. After extraction of the brain, the olfactory bulb and hindbrain were removed and the cerebral hemispheres separated (mice) or cut in 4 pieces (rats). The cerebellum was removed for bioanalysis of the compound. CSF was collected from the cisterna magna and blood from a cardiac puncture.

The subject of experiment [4] is γ-secretase. The experiment in a line: Aβ42 ELISA in mouse primary cortical neurons. To be noted: overnight. In kind it is cell-based. The protocol:
Primary cultures were established from the neocortex of E17 CD1 mouse embryos (Charles River Laboratories, Wilmington, MA, USA). Following tissue dissection and trituration, the cultures were suspended in Neurobasal® medium (Invitrogen, Carlsbad, CA, USA) supplemented with 10 % horse serum (Sigma-Aldrich, St. Louis, MO, USA) and 520 μM L-glutamine. Cells were plated at 50,000 cells/well in 96-well poly-D-lysine-coated plates. Following incubation at 37 °C and 5 % CO2 for 4 h, the plating medium was exchanged with Neurobasal® medium supplemented with 2 % B-27® (Invitrogen), 520 μM of L-glutamine, and 1 % penicillin–streptomycin. […]
Aβ peptide levels were quantified by sandwich ELISA using anti-Aβ38, anti-Aβ40, anti-Aβ42, (BioLegend, Dedham, MA, USA) or anti-Aβ37 for the capture and 4G8-horseradish peroxidase (HRP; BioLegend) for detection. […]
For cell-based assays, freshly collected samples of cultured cell supernatant were added to the plates and incubated at 4 °C for about 24 h. Detection was performed using SureBlue 3,3’,5,5’-tetramethylbenzidine (TMB) peroxidase substrate (KPL, Inc., Gaithersburg, MD, USA) and the plates read on a SpectraMax M5e microplate reader (Molecular Devices, Inc., Sunnyvale, CA, USA). […] EC50 values were calculated from values reported as percentage of DMSO using nonlinear regression, based on a sigmoidal dose–response (variable slope) model.
(In general: An ELISA detects its analyte on a solid surface through an enzyme-linked reagent.)

Experiment [5] relates to γ-secretase. As to the kind of experiment: Aβ peptide ELISA in H4 cells stably expressing wild-type human APP751. In kind it is cell-based. The protocol: Human neuroglioma H4 cells stably expressing wild-type human APP751 were used for this assay. Briefly, cells were plated at 15,000 cells/well in 96-well plates and left to settle for 6 h (37 °C; 5 % CO2). Cells were then washed three times with Pro293™ chemically defined medium (Lonza, Walkersville, MD, USA) followed by the addition of the compound (0.3 % final DMSO). Plates were incubated overnight, and the supernatant was removed for quantification of Aβ peptides by sandwich enzyme-linked immunosorbent assay (ELISA) (see below). Cytotoxicity was evaluated using Cell-Titer 96 W AQueous One Solution Cell Proliferation Assay (MTS Assay, Promega) according to the manufacturer’s protocol.
as §1, §2

Where [6] appears, read: rats, 30 mg/kg p.o., 6 h post-dose.

For `COc1nc(C2=NOC[C@H](c3cc4ccccc4o3)N2)ccc1-n1cnc(C)c1` [FRM-36143, (R)-5-(benzofuran-2-yl)-3-(6-methoxy-5-(4-methyl-1H-imidazol-1-yl)pyridin-2-yl)-5,6-dihydro-4H-1,2,4-oxadiazine], the “Aβ42 concentration in the media” value in experiment [1] (2 h, DMSO 154 ± 2) worked out at 105 ± 2 pM. In experiment [1] (2 h, DMSO 750 ± 62), the “Aβ38 concentration in the media” value was 1548 ± 39 pM. Further, the “Aβ40 concentration in the media” value in experiment [1] (2 h, DMSO 4021 ± 132) is on record as 3477 ± 120 pM. The “Aβtotal concentration in the media (Aβ38 + Aβ40 + Aβ42)” value in experiment [1] (2 h, DMSO 4925 ± 185) was determined as 5130 ± 92 pM. Besides, in experiment [1] (LC-MS/MS), the “Intracellular production of small peptides VVIA and VVIAT (fourth cleavage step)” value was “increases the production of VVIA and VVIAT”. For the same compound, the “Reversal of the effect of FAD PS1 mutations on APP processing” value in experiment [2] (HEK APPsw with PS1 H163R, M233L or R278I, Aβ42:Aβ40, Aβ38:Aβ42, VVIA/VVIAT) is “able to reverse the effect of the mutations studied”. For the same compound, the “Aβ38:Aβ42 ratio (fourth cleavage step)” value in experiment [2] (PS1 R278I mutant) is “significant increase”. Further, the “Aβ42:Aβ40 ratio” value in experiment [2] (PS1 R278I mutant) is on record as “remains unchanged”. In addition, the “Aβ42 reduced to % of the baseline in rat cerebrospinal fluid” value in experiment [3] (rat CSF) worked out at 58%. Further, the “Brain Aβ37 increase vs vehicle” value in experiment [3] (setting [6]) turned out to be 2.5 fold. In experiment [3] (setting [6]), the “Brain Aβ42 reduction vs vehicle” value is recorded as 30%. Further, in experiment [3] (setting [6]), the “CSF Aβ42 reduction vs vehicle” value was 58%. Moreover, the “CSF Aβ37 increase vs vehicle” value in experiment [3] (rats, 30 mg/kg p.o., 6 h post-dose, vehicle values close to detection limit) is on record as 20 fold. Moreover, the EC50 in experiment [4] was 53 nM; in experiment [5] (H4 APP751 cells, overnight, ELISA, read-out: EC50 for Aβ37), 186 nM; in experiment [5] (H4 APP751 cells, overnight, ELISA, read-out: EC50 for Aβ38) it was 38 nM; in experiment [5] (H4 APP751 cells, overnight, ELISA, read-out: EC50 for Aβ40) it was 167 nM; in experiment [5] (H4 cells expressing human WT APP751, overnight treatment, ELISA of conditioned media, read-out: EC50 for Aβ42), 35 nM; in experiment [5] (range over H4 cells and primary neurons, read-out: EC50 to reduce Aβ42 levels in cells), 35 to 53 nM. Also, the EC90 in experiment [5] (assay not stated, compared with unbound brain concentration) came to 383 nM.
